Key:
[1] = Oral pharmacokinetics in WT littermates of the BACHD colony; type: in vivo, mouse; conditions: single oral dose of 10 mg/kg
Description: Oral pharmacokinetics (PK) of compounds was evaluated in WT littermates from the BACHD colony (FVB background). Mice were treated with test compounds (10 mg/kg) by oral gavage in 0.5% hydroxypropylmethyl cellulose (HPMC) with 0.1% Tween 80. Blood was collected by terminal cardiac puncture at specified time points (3 mice per time point) and centrifuged to generate plasma. Brain tissue was collected at the time of blood collection and homogenized in water. Protein was precipitated from plasma and brain homogenates with acetonitrile, methanol mixture (5:1, v:v) containing an internal standard that is a close analog of the test compounds. The mixture was filtered through an EMD Millipore MultiScreen™ Solvinert Filter Plate (MSRLN04, Millipore, Burlington, Mass.). Calibration standards were prepared in the same matrix and processed with the testing samples. Filtrates were analysed using Acquity ultra performance liquid chromatography (UPLC) system (Waters Corporation) tandem with Xevo TQ-s Spectrometer (Waters Corporation). Samples were injected on to a Waters UPLC Acquity BEH C18 Column (2.1*50 mm, 1.7 μm) maintained at 50° C. The injection volume was 3 μL and the mobile phase flow rate was 0.45 mL/min. The mobile phase consisted of 2 solvents: A) 0.1% formic acid in water and B) 0.1% formic acid in acetonitrile. […]

[2] = system: human HTT intron 49 minigene; assay: Human HTT intron 49 minigene splicing in transfected HEK293 cells (endpoint PCR); type: cell-based; conditions: 10 nM, 100 nM, 1 μM, 24 h
Description: To identify potential sequence elements, human, mouse, and hybrid mouse/human HTT intron 49 minigene constructs were generated (FIG. 7A,7Bi-xii, 7Di-viii and 7Ei-vi). HEK293 cells transfected with the minigene constructs were treated with varying concentrations of test compounds in a final concentration 0.05% DMSO and incubated for 24 hours. Total RNA was isolated from the cells using the RNeasy plus mini kit (Qiagen) and RNA concentration and quality were assessed using a NanoDrop spectrophotometer (Thermo Fisher Scientific). cDNA was synthesized using an iScript™ cDNA synthesis kit (Bio-rad Laboratories) according to the manufacturer's instructions. Endpoint PCRs were set up using Platinum™ PCR SuperMix High Fidelity (Invitrogen) and the resulting PCR products separated on 2% eGels (Invitrogen). Primers were directed against common sequences in the minigene constructs: […]

human HTT protein = assay: Pharmacodynamic study in Hu97/18 mice, HTT protein in tissues, CSF and plasma; type: in vivo
Description: Test mice were euthanised and brain, muscle (quadriceps), and blood samples were harvested 2 hours after the last dose on Day 20. Prior to analysis, crude total protein from brain and muscle tissue samples was prepared by sample lysis in MSD® assay buffer 1 (MSD®) with Complete™ Protease Inhibitor Cocktail added (Roche Diagnostics). Tissues were then homogenised using TissueLyser II (Qiagen) plus a 5 mm stainless steel bead. The lysate was clarified by centrifugation at 16,000×g for 20 minutes at 4° C. and the total protein concentration quantified with the Pierce™ BCA Protein Assay Kit (Thermo Scientific) according to the manufacturer's instructions. Whole blood was collected by cardiac puncture into EDTA collection tubes. An aliquot (100-200 μL) was added to 1.5 mL of eBioscience™ 1× Red Blood Cell Lysis Buffer (Thermo Fisher) and mixed well for 5 minutes before collecting the white blood cells (WBC) by centrifugation at 400×g. The supernatant was discarded, and the pellet of WBCs was frozen in liquid nitrogen and stored at −70° C. Brain and muscle sample lysates were analysed for hHTT and KRAS protein expression using the ECL protein assay (described previously); using the same method WBC samples were also analysed for hHTT expression but not KRAS.
Hu97/Hu18: Both sexes of 2-4 month old Hu97/181 mice were used. […]

| Compound | plasma exposure [1] | compound-induced splicing of minigene [2] | HTT protein in striatum and cortex (human HTT protein; 2, 6 or 12 mg/kg daily for 21 days) | HTT protein within the brain and peripheral tissues (human HTT protein; Hu97/18 mice) |
| --- | --- | --- | --- | --- |
| CC1(C)CC(Oc2ccc(-c3ccc(-c4cn[nH]c4)cc3O)nn2)CC(C)(C)N1 [HTT-C2] | superior exposure to HTT-C1 | responded in a dose dependent manner | – | – |
| CCN1CCC(c2cc3c(F)cc(-c4cc(C)c5nc(C)cn5n4)cc3nn2)CC1 [HTT-D3] | – | – | uniform HTT protein reduction | dose dependent and more equitable lowering of HTT protein |

— patent publication US20220162610A1, “NOVEL RNA TRANSCRIPT” (PTC Therapeutics, Inc., priority 2020, published 2022)
